# Earlier results as cited in Sander's compilation of Henry's law constants (doi:10.1002/cite.330370802).
# Tests used:
# Details in all cases: reference: Irmann (1965); cited value
# [1] = Henry solubility constant Hcp at 294 K (mol/(m3 Pa))
# [2] = Henry solubility constant Hcp at 293 K (mol/(m3 Pa))
# [3] = Henry solubility constant Hcp at 298.15 K (mol/(m3 Pa))
# [4] = Henry solubility constant Hcp at 303 K (mol/(m3 Pa))
SMILES,Henry solubility constant Hcp [3],further results
"FC(F)(F)C(F)(Cl)Cl [1,1-dichlorotetrafluoroethane]",,Henry solubility constant Hcp at 294 K [1]: 5.8e-06
"CC(F)F [1,1-difluoroethane]",,Henry solubility constant Hcp at 294 K [1]: 0.00048
"FC(F)(Cl)C(F)(F)Cl [1,2-dichlorotetrafluoroethane]",,Henry solubility constant Hcp at 293 K [2]: 8.1e-06
"C=CC=C [1,3-butadiene]",0.00015,
"CC(F)(F)Cl [1-chloro-1,1-difluoroethane]",,Henry solubility constant Hcp at 294 K [1]: 0.00019
"FC(F)(F)CCl [2-chloro-1,1,1-trifluoroethane]",0.00037,
FC(F)(F)Br [bromotrifluoromethane],2e-05,
CCCl [chloroethane],0.00063,
FC(F)(F)C(F)(F)Cl [chloropentafluoroethane],3.2e-06,
FC(F)(F)Cl [chlorotrifluoromethane],5.7e-06,
FC(F)(Cl)Cl [dichlorodifluoromethane],2.3e-05,
FC(F)=C(F)F [tetrafluoroethene],,Henry solubility constant Hcp at 303 K [4]: 9.8e-06
FC(F)(F)F [tetrafluoromethane],1.9e-06,
FC(F)F [trifluoromethane],0.0001,
